Measured values from ChEMBL document CHEMBL3997764 (Medchemcomm, 2016).
Converted amounts (≈) assume the structure as drawn.

Columns and labels:
[1] = biological target: T1, Nuclear receptor subfamily 1 group I member 2 (Homo sapiens, UniProt O75469); experiment: Activation of PXR in human LS180 cells assessed as P-gp induction by measuring intracellular accumulation of rhodamine 123 per ug of total protein at 5 uM preincubated for 48 hrs followed by rhodamine 123 addition after 40 mins and measured after 90 mins by fluorescence assay relative to control; format: cell-based; conditions: 1.5 h
T1 sequence (O75469 whole entry): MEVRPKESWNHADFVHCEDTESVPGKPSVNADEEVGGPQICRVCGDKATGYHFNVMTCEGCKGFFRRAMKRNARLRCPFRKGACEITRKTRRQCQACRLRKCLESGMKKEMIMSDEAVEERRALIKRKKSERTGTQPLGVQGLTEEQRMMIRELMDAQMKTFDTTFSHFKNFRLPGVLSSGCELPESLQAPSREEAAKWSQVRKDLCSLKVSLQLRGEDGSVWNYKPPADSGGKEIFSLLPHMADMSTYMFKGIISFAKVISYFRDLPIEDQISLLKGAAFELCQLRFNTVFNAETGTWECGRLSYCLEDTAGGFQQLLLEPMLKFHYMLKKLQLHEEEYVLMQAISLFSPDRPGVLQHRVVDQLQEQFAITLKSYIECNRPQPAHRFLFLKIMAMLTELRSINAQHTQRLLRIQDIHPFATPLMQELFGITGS

[2] = Cytotoxicity against human LS180 cells assessed as cell viability at 30 uM after 24 hrs by MTT assay relative to control; format: cell-based; conditions: read-out: Activity
LS180 = experiment: Cytotoxicity against human LS180 cells assessed as reduction in cell viability after 24 hrs by MTT assay; format: cell-based; conditions: LS180, 24 h
[3] = AUC (0 to infinity) in BALB/c mouse plasma at 1 mg/kg, iv up to 24 hrs by LC-MS/MS analysis; format: ADME, organism-based; set-up: dose 1 mg/kg, route intravenous, time infinity
[4] = Volume of distribution in BALB/c mouse at 1 mg/kg, iv up to 24 hrs by LC-MS/MS analysis; format: ADME, organism-based; conditions: in vivo
[5] = Tmax in BALB/c mouse plasma at 10 mg/kg, po up to 24 hrs by LC-MS/MS analysis; format: ADME, organism-based
[6] = AUC (0 to t) in BALB/c mouse plasma at 1 mg/kg, iv up to 24 hrs by LC-MS/MS analysis; format: ADME, organism-based; set-up: dose 1 mg/kg, time < 24 hr, route intravenous
[7] = biological target: T1, Nuclear receptor subfamily 1 group I member 2; experiment: Activation of PXR in human LS180 cells assessed as P-gp induction by measuring intracellular accumulation of rhodamine 123 preincubated for 48 hrs followed by rhodamine 123 addition after 40 mins and measured after 90 mins by fluorescence assay; format: cell-based
[8] = Thermodynamic aqueous solubility of the compound in simulated gastric fluid at pH 1.2 after overnight incubation; format: physicochemical; conditions: read-out: Therm_solubility
[9] = Clearance in BALB/c mouse plasma at 1 mg/kg, iv up to 24 hrs by LC-MS/MS analysis; format: ADME, organism-based
[10] = Efflux ratio of permeability in human Caco2 cells after 90 mins by LC-MS/MS analysis; format: ADME, cell-based; conditions: Caco-2
[11] = Thermodynamic aqueous solubility of the compound in simulated intestinal fluid at pH 6.8 after overnight incubation; format: physicochemical; conditions: read-out: Therm_solubility
[12] = Initial plasma concentration in BALB/c mouse at 1 mg/kg, iv up to 24 hrs by LC-MS/MS analysis; format: ADME, organism-based
[13] = Cmax in BALB/c mouse plasma at 10 mg/kg, po up to 24 hrs by LC-MS/MS analysis; format: ADME, organism-based; set-up: dose 10 mg/kg, route oral
[14] = Oral bioavailability in BALB/c mouse plasma at 10 mg/kg up to 24 hrs by LC-MS/MS analysis; format: ADME, organism-based
[15] = biological target: T2, P-gp (expression induced through PXR) (Homo sapiens, UniProt O75469); experiment: Activation of PXR in human LS180 cells assessed as induction of P-gp expression at 5 uM by Western blot method relative to control; format: cell-based; conditions: read-out: FC
T2 sequence (O75469 whole entry): T1 sequence (O75469 whole entry)

Mus musculus = experiment: Tlast in BALB/c mouse at 1 mg/kg, iv up to 24 hrs by LC-MS/MS analysis; format: ADME, organism-based; conditions: in vivo
[16] = Volume of distribution at steady state in BALB/c mouse at 1 mg/kg, iv up to 24 hrs by LC-MS/MS analysis; format: ADME, organism-based; conditions: in vivo, read-out: Vdss
[17] = Thermodynamic aqueous solubility of the compound in water after overnight incubation; format: physicochemical; conditions: read-out: Therm_solubility
[18] = Thermodynamic aqueous solubility of the compound in phosphate buffered saline at pH 7.4 after overnight incubation; format: physicochemical; conditions: read-out: Therm_solubility
CYP2C19 = CYP2C19 (Homo sapiens, UniProt P33261); experiment: Inhibition of human recombinant CYP2C19 at 10 uM by fluorescence analysis relative to control; format: ADME
Chain of CYP2C19 (P33261 whole entry): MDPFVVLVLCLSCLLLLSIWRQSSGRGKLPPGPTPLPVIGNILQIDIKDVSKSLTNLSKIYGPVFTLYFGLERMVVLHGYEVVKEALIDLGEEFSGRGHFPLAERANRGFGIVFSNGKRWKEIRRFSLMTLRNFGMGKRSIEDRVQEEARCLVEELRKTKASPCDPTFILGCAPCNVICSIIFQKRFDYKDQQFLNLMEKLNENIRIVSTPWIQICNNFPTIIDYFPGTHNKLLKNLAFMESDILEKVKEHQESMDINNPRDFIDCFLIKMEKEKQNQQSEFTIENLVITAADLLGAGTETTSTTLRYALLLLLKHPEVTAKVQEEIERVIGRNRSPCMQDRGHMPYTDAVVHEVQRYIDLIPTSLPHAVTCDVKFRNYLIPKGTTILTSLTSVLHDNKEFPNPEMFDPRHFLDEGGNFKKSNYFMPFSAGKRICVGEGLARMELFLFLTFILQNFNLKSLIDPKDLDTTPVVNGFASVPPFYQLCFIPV

[19] = Cmax in BALB/c mouse plasma at 1 mg/kg, iv up to 24 hrs by LC-MS/MS analysis; format: ADME, organism-based; set-up: dose 1 mg/kg, route intravenous
[20] = AUC (0 to t) in BALB/c mouse plasma at 10 mg/kg, po up to 24 hrs by LC-MS/MS analysis; format: ADME, organism-based; set-up: dose 10 mg/kg, time < 24 hr, route oral
CYP2D6 = CYP2D6 (Homo sapiens, UniProt P10635); experiment: Inhibition of human recombinant CYP2D6 at 10 uM by fluorescence analysis relative to control; format: ADME
Chain of CYP2D6 (P10635 whole entry): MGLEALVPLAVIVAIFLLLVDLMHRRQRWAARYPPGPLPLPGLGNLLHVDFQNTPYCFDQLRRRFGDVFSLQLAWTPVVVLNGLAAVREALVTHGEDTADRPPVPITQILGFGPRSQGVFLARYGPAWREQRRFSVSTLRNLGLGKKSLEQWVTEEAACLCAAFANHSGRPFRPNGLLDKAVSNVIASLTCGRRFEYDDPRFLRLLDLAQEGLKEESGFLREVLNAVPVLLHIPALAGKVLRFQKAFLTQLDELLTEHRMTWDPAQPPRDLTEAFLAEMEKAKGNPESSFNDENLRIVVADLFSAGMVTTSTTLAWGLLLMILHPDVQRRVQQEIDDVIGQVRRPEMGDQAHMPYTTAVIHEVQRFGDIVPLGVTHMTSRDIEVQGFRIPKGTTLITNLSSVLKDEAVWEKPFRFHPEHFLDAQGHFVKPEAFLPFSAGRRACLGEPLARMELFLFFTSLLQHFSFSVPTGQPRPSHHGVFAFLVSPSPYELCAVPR

[21] = AUC (0 to infinity) in BALB/c mouse plasma at 10 mg/kg, po up to 24 hrs by LC-MS/MS analysis; format: ADME, organism-based; set-up: dose 10 mg/kg, time infinity, route oral
CYP2C9 = CYP2C9 (Homo sapiens, UniProt P11712); experiment: Inhibition of human recombinant CYP2C9 at 10 uM by fluorescence analysis relative to control; format: ADME
Chain of CYP2C9 (P11712 whole entry): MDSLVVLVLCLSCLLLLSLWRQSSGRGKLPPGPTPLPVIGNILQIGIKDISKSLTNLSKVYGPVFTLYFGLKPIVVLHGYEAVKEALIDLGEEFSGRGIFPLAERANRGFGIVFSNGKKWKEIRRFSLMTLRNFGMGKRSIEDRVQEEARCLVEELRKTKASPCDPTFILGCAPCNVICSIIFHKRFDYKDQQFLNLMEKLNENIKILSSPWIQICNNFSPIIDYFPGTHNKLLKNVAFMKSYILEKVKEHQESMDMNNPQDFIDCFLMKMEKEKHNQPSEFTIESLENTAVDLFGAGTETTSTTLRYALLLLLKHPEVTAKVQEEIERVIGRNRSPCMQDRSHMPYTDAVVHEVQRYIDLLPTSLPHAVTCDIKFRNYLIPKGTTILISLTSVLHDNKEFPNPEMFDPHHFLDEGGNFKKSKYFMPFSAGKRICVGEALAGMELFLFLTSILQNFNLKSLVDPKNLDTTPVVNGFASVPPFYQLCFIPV

[22] = Terminal half life in BALB/c mouse plasma at 1 mg/kg, iv by LC-MS/MS analysis; format: ADME, organism-based; conditions: read-out: beta t1/2 (converted)
CYP3A4 = CYP3A4 (Homo sapiens, UniProt P08684); experiment: Inhibition of human recombinant CYP3A4 at 10 uM by fluorescence analysis relative to control; format: ADME
Chain of CYP3A4 (P08684 whole entry): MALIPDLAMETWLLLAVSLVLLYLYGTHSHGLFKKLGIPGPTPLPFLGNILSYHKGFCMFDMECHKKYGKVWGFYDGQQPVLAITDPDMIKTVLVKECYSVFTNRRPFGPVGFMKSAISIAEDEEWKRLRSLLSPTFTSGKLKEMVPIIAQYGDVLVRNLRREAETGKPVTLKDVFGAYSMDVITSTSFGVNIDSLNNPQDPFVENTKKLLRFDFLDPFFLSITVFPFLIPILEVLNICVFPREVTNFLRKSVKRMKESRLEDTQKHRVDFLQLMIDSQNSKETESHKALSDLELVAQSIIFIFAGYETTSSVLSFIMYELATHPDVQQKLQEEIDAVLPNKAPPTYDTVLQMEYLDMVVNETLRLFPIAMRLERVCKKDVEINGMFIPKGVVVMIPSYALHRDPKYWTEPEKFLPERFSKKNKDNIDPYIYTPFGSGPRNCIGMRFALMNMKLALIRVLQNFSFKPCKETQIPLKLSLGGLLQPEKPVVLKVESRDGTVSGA

[23] = Terminal half life in BALB/c mouse plasma at 10 mg/kg, po by LC-MS/MS analysis; format: ADME, organism-based; conditions: read-out: beta t1/2 (converted)

CCOP(=O)(/C=C/c1ccc(F)c(Br)c1)OCC
Activity [1]: 97.7% | viability at 24 h, 30 µM [2]: 100% | IC50 (LS180): > 30 µM

CC(C)OP(=O)(OC(C)C)C(=Cc1cccc2ccccc12)P(=O)(OC(C)C)OC(C)C
Activity [1]: 63.71% | viability at 24 h, 30 µM [2]: 100% | IC50 (LS180): > 30 µM

CC(C)OP(=O)(OC(C)C)C(=Cc1ccc([N+](=O)[O-])o1)P(=O)(OC(C)C)OC(C)C
Activity [1]: 67.84% | viability at 24 h, 30 µM [2]: 41%

CCOP(=O)(C#Cc1ccc(C(F)(F)F)cc1)OCC
Activity [1]: 74.63% | viability at 24 h, 30 µM [2]: 100% | IC50 (LS180): > 30 µM

CCOP(=O)(OCC)C(=Cc1ccc([N+](=O)[O-])o1)P(=O)(OCC)OCC
Activity [1]: 88.3% | viability at 24 h, 30 µM [2]: 92% | IC50 (LS180): > 30 µM

CO[C@H]1/C=C/O[C@@]2(C)Oc3c(C)c(O)c4c(O)c(c(/C=N/N5CCN(C)CC5)c(O)c4c3C2=O)NC(=O)/C(C)=C\C=C\[C@H](C)[C@H](O)[C@@H](C)[C@@H](O)[C@@H](C)[C@H](OC(C)=O)[C@@H]1C [RIFAMPIN]
Activity [1]: 77.3%

CCOP(=O)(C#Cc1cccc(C(F)(F)F)c1)OCC
Activity [1]: 75.16% | viability at 24 h, 30 µM [2]: 100% | IC50 (LS180): > 30 µM

CCOP(=O)(OCC)C(Nc1ccccc1)c1ccc(Cl)cc1 (stereo not given)
Activity [1]: 90.85% | viability at 24 h, 30 µM [2]: 100% | IC50 (LS180): > 30 µM

CCOP(=O)(OCC)C(=Cc1cc(OC)cc(OC)c1)P(=O)(OCC)OCC
Activity [1]: 64.8% | viability at 24 h, 30 µM [2]: 100% | IC50 (LS180): > 30 µM

CCOP(=O)(OCC)C(=Cc1ccccc1)P(=O)(OCC)OCC
AUC(0-inf) [3]: 549 ng·h/mL | Vd [4]: 1.81 L/kg | Tmax [5]: 30 min | AUC(0-t) at 24 h [6]: 543 ng·h/mL | EC50 [7]: 0.271 µM | solubility thermodynamic [8]: > 1500 µg/mL | clearance [9]: 30.4 mL/min/kg | efflux ratio at 1.5 h [10]: 0.9 | solubility thermodynamic [11]: 40 µg/mL (≈ 0.106 mM) | Activity [1]: 58.09% | C0 at 24 h [12]: 1150 ng/mL | Cmax [13]: 870 ng/mL | bioavailability [14]: 37.6% | fold induction at 5 µM [15]: 7.2 | Tlast (Mus musculus): 4 h | Vd [16]: 1.1 L/kg | solubility thermodynamic [17]: > 1500 µg/mL | viability at 24 h, 30 µM [2]: 100% | solubility thermodynamic [18]: > 1500 µg/mL | inhibition at 10 µM (CYP2C19): 0% | Cmax [19]: 811 ng/mL | AUC(0-t) at 24 h [20]: 1970 ng·h/mL | inhibition at 10 µM (CYP2D6): 20% | IC50 (LS180): > 30 µM | AUC(0-inf) [21]: 2070 ng·h/mL | inhibition at 10 µM (CYP2C9): 0% | half-life [22]: 41.4 min | inhibition at 10 µM (CYP3A4): 19% | half-life [23]: 209 min

CC(C)OP(=O)(OC(C)C)C(=Cc1cccc2ncccc12)P(=O)(OC(C)C)OC(C)C
Activity [1]: 70.48% | viability at 24 h, 30 µM [2]: 100% | IC50 (LS180): > 30 µM

CC(C)OP(=O)(OC(C)C)C(=Cc1cccc(Br)c1)P(=O)(OC(C)C)OC(C)C
Activity [1]: 68.08% | viability at 24 h, 30 µM [2]: 74% | IC50 (LS180): > 30 µM

CCOP(=O)(/C=C/c1cc(F)cc(F)c1)OCC
Activity [1]: 91.31% | viability at 24 h, 30 µM [2]: 100% | IC50 (LS180): > 30 µM

COc1cc(C=C(P(=O)(OC(C)C)OC(C)C)P(=O)(OC(C)C)OC(C)C)cc(OC)c1
Activity [1]: 72.45% | viability at 24 h, 30 µM [2]: 100% | IC50 (LS180): > 30 µM
